# Several values for one entry are separate records, joined by “and”; a condition that tells them apart may be missing. Equal values may be shown once. Read-outs that look alike come from different tables or passages of the source.
# Legend:
# Format in all cases: in vivo, human
# [1] = Abuse potential main study: plasma pharmacokinetics after a single oral dose; details: for Tmax / half-life / AUC(0-t) / Cmax: human, plasma
# Procedure: Safety and tolerability endpoints included the frequency and severity of AEs and SAEs, the change from baseline in clinical laboratory assessments, vital signs, and ECG, and suicidality assessed by the Columbia-Suicide Severity Rating Scale (C-SSRS).
# During the treatment phase, PK measures were assessed predose and at multiple time points, from 0.5 to 24 hours after dosing. Blood samples collected for plasma analyses were kept frozen (approximately −70° C. to −80° C.) until analysis. The quantification of the Compound (1) plasma concentration was performed by a bioanalytical laboratory (PRA Health Sciences, Lenexa, Kansas) using a validated liquid chromatography with a tandem mass spectroscopic method. The validated range of the assay was 1.00 to 500 ng/ml.
# All PK analyses were based on the PK analysis set. Descriptive statistics included sample size, arithmetic mean, standard deviation, arithmetic coefficient of variation (CV), first quartile, median, and the minimum and maximum values […]. For summary statistics, PK concentration values below the limit of quantification were treated as zero. For calculating PK parameters, PK concentration values of zero that occurred prior to or after the first quantifiable concentration were imputed as zero or missing, respectively. The Compound (1) plasma PK parameters were estimated for each participant using noncompartmental analysis (Phoenix® WinNonlin® version 8.0 or later). The estimation of the terminal-elimination rate constant (λz) and λz-derived PK parameters were dependent upon inspection of PK data and a minimum of three time points in the terminal phase with adjusted R2 ≥0.8.
# [2] = system: adult subjects with major depressive disorder (MDD); assay: Phase 3 MDD study (NCT04442490): safety and tolerability (TEAEs, C-SSRS, PWC-20)
# Procedure: • Incidence and severity of adverse events/serious adverse events • Changes from baseline in clinical laboratory measures, vital signs, and electrocardiograms (ECGs) • Suicidal ideation and behavior using the Columbia Suicide Severity Rating Scale (C-SSRS) • Potential withdrawal symptoms using the 20-item Physician Withdrawal Checklist (PWC-20)
# Safety and tolerability of study drug was evaluated by incidence of adverse events/serious adverse events, vital signs, clinical laboratory evaluations, and 12-lead ECG.
# Suicidality was monitored by the C-SSRS. Potential withdrawal symptoms after discontinuation of Compound (1) was assessed using the PWC-20.
# Safety and tolerability were evaluated by incidence and severity of adverse events (AEs), serious adverse events (SAEs), changes from baseline in clinical laboratory evaluations, vital signs, and 12-lead electrocardiography. Suicidality was monitored by the Columbia Suicide Severity Rating Scale (C-SSRS). The Physician Withdrawal Checklist-20 total score (PWC-20TS) was used to monitor for the presence of potential withdrawal symptoms following discontinuation of Compound (1)-50 mg.
# [3] = system: patients with PPD or MDD; assay: Most common TEAEs across clinical trials in PPD or MDD: overall ranges; details: 30 or 50 mg (N = 583)
# Text: The majority of patients receiving Compound (1) and experiencing a TEAE reported TEAEs mild and moderate in severity: clinical trial of Example 4 94%, Phase 2 clinical trial conducted by Applicant 100%, previous Phase 3 clinical trial conducted by Applicant 98%, and clinical trial of Example 1 95.0%.
# [4] = 50 mg (n = 268), through Day 42
smiles,measurement,setting,value
"C[C@@]1(O)CC[C@H]2[C@H](CC[C@@H]3[C@@H]2CC[C@]2(C)[C@@H](C(=O)Cn4cc(C#N)cn4)CC[C@@H]32)C1 [Compound (1), 1-(2-((3R,5R,8R,9R,10S,13S,14S,17S)-3-hydroxy-3,13-dimethylhexadecahydro-1H-cyclopenta[a]phenanthren-17-yl)-2-oxoethyl)-1H-pyrazole-4-carbonitrile]","AUC0-24, geometric mean",[1]; 60 mg single oral dose,982 ng·h/mL
same,"T½ values, range over doses","[1]; 30, 60, 90 mg, capsule",10 to 11 h
same,Tmax,"[1]; oral, 90 mg, 30, 60, 90 mg, capsule, read-out: Tmax (median), all three doses",5.1 h
same,half-life,"[1]; oral, 90 mg, 30, 60, 90 mg, capsule, read-out: T½ values, range over doses",9.92 to 10.9 h
same,AUC(0-t),"[1]; oral, 30, 60, 90 mg, read-out: AUC0-24 values, range over doses",520 to 1330 ng·h/mL
same,Cmax,"[1]; oral, 30, 60, 90 mg, read-out: Cmax geometric mean values, range over doses",55.5 to 123 ng/mL
same,half-life,"[1]; po, 30 mg, 30 mg single oral dose (n = 66), read-out: T½, geometric mean (converted)",10.1 h
same,Tmax,"[1]; po, 30 mg, 30 mg single oral dose, read-out: Tmax, median",5.1 h
same,half-life,"[1]; po, 60 mg, 60 mg single oral dose (n = 60), read-out: T½, geometric mean (converted)",9.9 h
same,Tmax,"[1]; po, 60 mg, 60 mg single oral dose, read-out: Tmax, median",5.1 h
same,half-life,"[1]; po, 90 mg, 90 mg single oral dose (n = 62), read-out: T½, geometric mean (converted)",10.9 h
same,Tmax,"[1]; po, 90 mg, 90 mg single oral dose, read-out: Tmax, median",5.1 h
same,Cmax,"[1]; 30 mg single oral dose (n = 65), read-out: Cmax, geometric mean",55.5 ng/mL
same,AUC(0-t),"[1]; 30 mg single oral dose, read-out: AUC0-24, geometric mean",520 ng·h/mL
same,Cmax,"[1]; 60 mg single oral dose (n = 66), read-out: Cmax, geometric mean",97.6 ng/mL
same,Cmax,"[1]; 90 mg single oral dose (n = 67), read-out: Cmax, geometric mean",123 ng/mL
same,AUC(0-t),"[1]; 90 mg single oral dose, read-out: AUC0-24, geometric mean",1330 ng·h/mL
same,"AEs of loss of consciousness, weight gain, sexual dysfunction, euphoria",[2]; 50 mg,"no loss of consciousness, weight gain, sexual dysfunction, or euphoria reported"
same,Overall tolerability,[2]; 50 mg,generally well-tolerated
same,TEAE Alanine aminotransferase increased,[2]; [4],3 (1.1%) n (%)
same,TEAE Dry mouth,[2]; [4],10 (3.7%) n (%)
same,TEAE Tremor,[2]; [4],8 (3.0%) n (%)
same,Any TEAE,"[2]; 50 mg, ADT use at baseline=Yes (N = 79)",50 (63.3) n (%)
same,TEAE Abnormal dreams,"[2]; 50 mg, ADT=Yes (N = 79)",2 (2.5) n (%)
same,TEAE Alanine aminotransferase increased,"[2]; 50 mg, ADT=Yes (N = 79)",2 (2.5) n (%)
same,TEAE Diarrhea,"[2]; 50 mg, ADT=Yes (N = 79)",4 (5.1) n (%)
same,TEAE Disturbance in attention,"[2]; 50 mg, ADT=Yes (N = 79)",0 n (%)
same,TEAE Dizziness,"[2]; 50 mg, ADT=Yes (N = 79)",10 (12.7) n (%)
same,TEAE Dry mouth,"[2]; 50 mg, ADT=Yes (N = 79)",4 (5.1) n (%)
same,TEAE Flatulence,"[2]; 50 mg, ADT=Yes (N = 79)",0 n (%)
same,TEAE Gastroenteritis,"[2]; 50 mg, ADT=Yes (N = 79)",2 (2.5) n (%)
same,TEAE Headache,"[2]; 50 mg, ADT=Yes (N = 79)",9 (11.4) n (%)
same,TEAE Insomnia,"[2]; 50 mg, ADT=Yes (N = 79)",2 (2.5) n (%)
same,TEAE Nausea,"[2]; 50 mg, ADT=Yes (N = 79)",1 (1.3) n (%)
same,TEAE Restlessness,"[2]; 50 mg, ADT=Yes (N = 79)",2 (2.5) n (%)
same,TEAE Sedation,"[2]; 50 mg, ADT=Yes (N = 79)",7 (8.9) n (%)
same,TEAE Somnolence,"[2]; 50 mg, ADT=Yes (N = 79)",9 (11.4) n (%)
same,TEAE Suicidal ideation,"[2]; 50 mg, ADT=Yes (N = 79)",3 (3.8) n (%)
same,TEAE Tremor,"[2]; 50 mg, ADT=Yes (N = 79)",3 (3.8) n (%)
same,TEAE Upper respiratory tract infection,"[2]; 50 mg, ADT=Yes (N = 79)",2 (2.5) n (%)
same,TEAE Urinary tract infection,"[2]; 50 mg, ADT=Yes (N = 79)",2 (2.5) n (%)
same,C-SSRS: No suicidal ideation/behavior,"[2]; 50 mg, Day 8 (N = 255)",237 (92.9) n (%)
same,C-SSRS: Suicidal behavior,"[2]; 50 mg, Day 8 (N = 255)",0 n (%)
same,C-SSRS: Suicidal ideation,"[2]; 50 mg, Day 8 (N = 255)",18 (7.1) n (%)
same,C-SSRS: No suicidal ideation/behavior,"[2]; 50 mg, Day 15 (N = 248)",229 (92.3) n (%)
same,C-SSRS: Suicidal behavior,"[2]; 50 mg, Day 15 (N = 248)",0 n (%)
same,C-SSRS: Suicidal ideation,"[2]; 50 mg, Day 15 (N = 248)",19 (7.7) n (%)
same,"PWC-20 total score change from first assessment (CFFA), mean (SD)","[2]; 50 mg, Day 18",−1.2 (4.3) and −1.2 (4.32)
same,Withdrawal symptoms by PWC-20,"[2]; 50 mg, Day 18 or 21",No signals for withdrawal symptoms
same,"PWC-20 total score change from first assessment (CFFA), mean (SD)","[2]; 50 mg, Day 21",−0.3 (4.6) and −0.3 (4.37)
same,C-SSRS: No suicidal ideation/behavior,"[2]; 50 mg, Day 42 (N = 240)",223 (92.9) n (%)
same,C-SSRS: Suicidal behavior,"[2]; 50 mg, Day 42 (N = 240)",0 n (%)
same,C-SSRS: Suicidal ideation,"[2]; 50 mg, Day 42 (N = 240)",17 (7.1) n (%)
same,Suicidal ideation/behavior signal by C-SSRS,"[2]; 50 mg, throughout the study",No signal of increased suicidal ideation/behavior
same,Patients with a TEAE whose TEAEs were mild and moderate in severity,[2]; clinical trial of Example 1,95.0%
same,"Any TEAE, overall range across trials",[3],53.3-60.3%
same,"Diarrhea, overall range across trials",[3],0-6.4%
same,"Dizziness, overall range across trials",[3],5.7-13.8%
same,"Fatigue, overall range across trials",[3],1.1-6.8%
same,"Headache, overall range across trials",[3],6.3-17.8%
same,"Nausea, overall range across trials",[3],3.6-11.1%
same,"Sedation, overall range across trials",[3],4.4-7.5%
same,"Somnolence, overall range across trials",[3],6.7-15.4%
same,"URTI, overall range across trials",[3],0-7.7%
